Measurements from patent publication US20190183114A1, “METHODS AND COMPOSITIONS FOR THE PRESERVATIONOF ORGANS” (INSERM (Institut National de la Sante et de la Recherche …, priority 2016, published 2019).
Entries after “also recorded” stand apart in the source; their conditions may differ.

Tests used:
Type in all cases: cell-based, human
[1] = tested on: HAEC; experiment: XTT viability assay on HAEC subjected to 24 h of cold ischemia followed by 6 h of reperfusion; settings: for cell viability / survival after ischemia reperfusion (XTT): 24 h ischemia + 6 h reperfusion, treated during hypoxia from start (AEBSF 300 μM, Salubrinal 75 μM, STF083010 10 μM, 4μ8c 10 μM); for protection against cell death, treatment delayed by 6 h after start of cold ischemia: treatment only at 6 h; for protection against cell death, treatment delayed by 6 h after start of cold ischemia / protection against cell death, treatment delayed by 12 h after start of cold ischemia: data not shown; for protection against cell death, treatment delayed by 12 h after start of cold ischemia: treatment after 12 h
Procedure: Primary human aortic endothelial cells (HAEC) were obtained from Gibco (Lot No: #765093 and Lot No: #999999) and cultured on 1% gelatin (Sigma) coated flasks of 75 cm^2 in M200 medium supplemented with LSGS (Gibco), 8% fetal bovine serum (FBS), and 100 μg/mL penicillin and streptomycin in a humidified atmosphere at 21% O2, 5% CO2 and 37° C. The cells were split at a ratio of 1:4 every 5 days. Cells up to passage 5 were used in this study. All cell culture media, serum, and supplements were purchased from Invitrogen. STF083010 (10 μM) and 4μ8c (10 μM) were purchased from Axon MedChem. Salubrinal (75 μM) was from R&D. Tunicamycin ([…]), sodium 4-phenylbutyrate (1 mM), and 4-(2-Aminoethyl)benzenesulfonyl fluoride (AEBSF, 300 μM) were from Sigma. All chemicals were dissolved in DMSO (Sigma). IRE1α^−/− and IRE1α^+/+—which are IRE1α^−/− cells rescued by a retrovirus encoding a Flag-tagged human IRE1α—murine embryonic cells (MEC) were produced as previously described (Volmer R, Ploeg K van der, Ron D. Membrane lipid saturation activates endoplasmic reticulum unfolded protein response transducers through their transmembrane domains. Proc. Natl. Acad. Sci. 2013; 201217611). MEC were cultured in DMEM high-glucose media (Gibco) supplemented with 10% FBS, non-essential amino acids (Gibco), penicillin and streptomycin (Gibco), L-glutamine (Gibco), and puromycin (3 μg/mL).
(§1) HAEC were washed with PBS before being incubated in cold University of Wisconsin (UW) preservation solution in a chamber with hypothermic (4° C.) hypoxic atmosphere obtained by flushing the chamber atmosphere with Bactal 2 (0% O2, 95% N2 and 5% CO2) until the reach of 0% 02 in the chamber atmosphere. The oxygen level was controlled with the oximeter Oxy-4 micro from PreSens Precision Sensing GmbH with channels present in the outside atmosphere, the chamber atmosphere, and the cell supernatant. To perform the normothermic reoxygenation, cells were washed with PBS and then incubated with M200 supplemented with 2% FBS in a humidified atmosphere at 21% O2, 5% CO2 and 37° C. The durations of both hypoxia and reoxygenation are indicated in figure legends and in the manuscript.
Reverse transfection were performed using ON-TARGETplus SMART pool siRNAs targeting IRE1α (#L-004951-02-0005), XBP1 (#L-009552-00-0005), PERK (#L-004883-00-0005), ATF4 (#L-005125-00-0005), ATF6 (#L-009917-00-0005), or ON-TARGETplus Non-targeting Pool control siRNAs (#D-001810-10-05). They were purchased from Dharmacon and used at a final concentration of 20 nM. The transfection was performed using Lipofectamine RNAiMAX and Opti-MEM reduced serum medium according to the manufacturer's instructions (Invitrogen). After 6 hours of transfection, the cell medium was replaced with fresh cell culture medium containing 10% of FBS, LSGS but no antibiotics and no antimycotics. After 24 hours of transfection, cells were subjected to hypoxia-reoxygenation experiments. For cells in 96- and 24-wells plates, cell viability was analyzed according to protocol provided (XTT cell proliferation kit II, Roche Diagnostics) while cells in 6-wells were subjected to RT-qPCR analysis to detect knockdown efficiency.

[2] = tested on: ATF4; experiment: ATF4 production in EC subjected to 6 h of ischemia; settings: data not shown
Procedure: as §1
(§2) HAEC were washed in cold PBS and resuspended in complete lysis buffer (Roche Diagnostics, #04719956001) before being sonicated at output power of 2 for 3 seconds (Branson Sonifier 450). The protein concentration of cell lysate supernatants was measured by BCA protein assay (Bio-Rad, #23225). […] The bound primary antibodies were detected with ChemiDoc™ MP imager (Bio-Rad) by the use of HRP-conjugated secondary antibody and the ECL detection system (Amersham Biosciences). […]

[3] = tested on: ATF6; experiment: RT-qPCR of ATF6 downstream targets HerpUD and GRP78 in tunicamycin-treated HAEC; settings: 6 h tunicamycin
Procedure: (§3) Primary human aortic endothelial cells (HAEC) were obtained from Gibco (Lot No: #765093 and Lot No: #999999) and cultured on 1% gelatin (Sigma) coated flasks of 75 cm^2 in M200 medium supplemented with LSGS (Gibco), 8% fetal bovine serum (FBS), and 100 μg/mL penicillin and streptomycin in a humidified atmosphere at 21% O2, 5% CO2 and 37° C. The cells were split at a ratio of 1:4 every 5 days. Cells up to passage 5 were used in this study. All cell culture media, serum, and supplements were purchased from Invitrogen. STF083010 (10 μM) and 4μ8c (10 μM) were purchased from Axon MedChem. […]
(§4) RNA was extracted from HAEC using the NucleoSpin RNA kit (Macherey-Nagel) containing a DNase treatment to remove potentially contaminating genomic DNA. […] A quantity of 1 μg of total RNA was reverse-transcribed with High Capacity cDNA Reverse Transcription kit (ABsystems). RT-qPCR was performed in triplicate with negative template controls, negative enzyme controls and the use of a calibrator to limit inter-run variations as recommended by the MIQE guidelines (Bustin S A, Benes V, Garson J A, Hellemans J, Huggett J, Kubista M, et al. The MIQE Guidelines: Minimum Information for Publication of Quantitative Real-Time PCR Experiments. Clin. Chem. 2009; 55:611-22). […]

[4] = tested on: CHOP; experiment: RT-qPCR of CHOP mRNA in tunicamycin-treated HAEC; settings: 6 h tunicamycin, hydrochloride
Procedure: as §3, §4

[5] = tested on: CHOP; experiment: RT-qPCR of CHOP mRNA in HAEC subjected to 24 h of ischemia
Procedure: as §1, with “The durations of both hypoxia and reoxygenation are indicated in figure legends and in the manuscript.” left out
as §4

[6] = tested on: IRE1α's RNase activity; experiment: XBP1s and Erdj4 expression in tunicamycin-stimulated cells; settings: data not shown
Procedure: as §3, §4

[7] = tested on: IRE1α's RNase activity; experiment: XBP1 mRNA splicing in cells subjected to 6 h ischemia; settings: data not shown
Procedure: as §1
We followed the method used in (Fougeray S, Bouvier N, Beaune P, Legendre C, Anglicheau D, Thervet E, et al. Metabolic stress promotes renal tubular inflammation by triggering the unfolded protein response. Cell Death Dis. 2011; 2:e143). The XBP1 cDNA encompassing the region of restriction site was amplified by PCR. […] The spliced isoform of XBP1 mRNA was resistant to Pst1 and was detected as a 448-bp amplification product whereas the unspliced isoform, containing Pst1 restriction site, was detected by the presence of two amplification products of 291-bp and 183-bp (FIG. 8A, right).

[8] = tested on: ATF6; experiment: Western blot analysis of ATF6 at different times of ischemia; settings: data not shown
Procedure: as §1, §2

O=C(C=Cc1ccccc1)NC(NC(=S)Nc1cccc2cccnc12)C(Cl)(Cl)Cl (stereo not shown) [Salubrinal, 3-phenyl-N-[2,2,2-trichloro-1-[[(8-quinolinylamino)thioxomethyl]amino]ethyl]-2-propenamide]
cell viability / survival after ischemia reperfusion (XTT) [1]: improves viability; also recorded: significantly increased EC survival | cell viability / survival after ischemia reperfusion (XTT) ([1]; listed as Salubinal): significantly protected cells against death | protection against cell death, treatment delayed by 6 h after start of cold ischemia [1]: lost | ATF4 production [2]: effectively increased

Cl.NCCc1ccc(S(=O)(=O)F)cc1 [AEBSF, 4-(2-Aminoethyl) benzenesulfonyl fluoride hydrochloride]
cell viability / survival after ischemia reperfusion (XTT) ([1]; hydrochloride): improves viability; also recorded: protected endothelial cells against cold ischemia-induced death; also recorded: correctly protected EC against death | protection against cell death, treatment delayed by 12 h after start of cold ischemia [1]: protective effect was significantly lost | protection against cell death, treatment delayed by 6 h after start of cold ischemia [1]: trend towards decreased protection | GRP78 mRNA expression [3]: decreased | HerpUD mRNA expression [3]: decreased | CHOP mRNA expression [4]: decreases CHOP expression; also recorded: lower CHOP mRNA expression

Cc1cc(=O)oc2c(C=O)c(O)ccc12 [4μ8c]
cell viability / survival after ischemia reperfusion (XTT) [1]: increased EC survival

O=S(=O)(N=Cc1c(O)ccc2ccccc12)c1cccs1 [STF083010, N-[(2-Hydroxy-1-naphthalenyl)methylene]-2-thiophenesulfonamide]
cell viability / survival after ischemia reperfusion (XTT) [1]: improves viability; also recorded: increased EC survival | cell viability / survival after ischemia reperfusion (XTT) ([1]; listed as STF): significantly increased EC survival | protection against cell death, treatment delayed by 12 h after start of cold ischemia [1]: did not alter the protection | protection against cell death, treatment delayed by 6 h after start of cold ischemia [1]: did not alter the protection | CHOP mRNA expression [5]: decreased CHOP mRNA expression | CHOP mRNA expression ([5]; listed as STF): significantly decreased CHOP expression to control levels | Erdj4 expression [6]: abrogated | XBP1s expression [6]: abrogated | XBP1 mRNA splicing [7]: inhibited splicing | ATF6 expression (Western blot) ([8]; after 12 h of ischemia): trend towards increased ATF6 expression | ATF6 expression (Western blot) ([8]; at 24 h of ischemia): no significant differences
